Reference: the NIST ThermoML archive (doi:10.1016/j.jct.2004.08.003)
Numbers after ± are expanded uncertainties.

Experiments:
[1] = relative permittivity at various frequencies (dimensionless); conditions: 101.3 kPa, Liquid, Frequency=1 MHz, HP4284A LCR Meter with HP16452A measuring cell
[2] = 101.33 kPa, Liquid

Compound | relative permittivity ([1]; 288.15 K) | relative permittivity ([1]; 293.15 K) | relative permittivity ([1]; 298.15 K) | relative permittivity ([1]; 303.15 K) | relative permittivity ([1]; 308.15 K) | relative permittivity ([1]; 318.15 K) | relative permittivity ([1]; 328.15 K) | mass density ([2]; 288.15 K) [kg/m3] | mass density ([2]; 293.15 K) [kg/m3] | mass density ([2]; 298.15 K) [kg/m3] | mass density ([2]; 303.15 K) [kg/m3] | mass density ([2]; 308.15 K) [kg/m3] | mass density ([2]; 318.15 K) [kg/m3] | mass density ([2]; 328.15 K) [kg/m3]
COCCOCCOCCOC [2,5,8,11-tetraoxadodecane] | 7.88 ± 0.16 | 7.73 ± 0.15 | 7.58 ± 0.15 | 7.46 ± 0.15 | 7.33 ± 0.15 | 7.09 ± 0.14 | 6.88 ± 0.14 | 989.16 ± 0.76 | 984.16 ± 0.78 | 979.61 ± 0.8 | 974.85 ± 0.82 | 970.85 ± 0.84 | 960.67 ± 0.89 | 951.06 ± 0.94
CCCCCCCCCCCC [dodecane] | 2.04 ± 0.04 | 2.03 ± 0.04 | 2.02 ± 0.04 | 2.02 ± 0.04 | 2.01 ± 0.04 | 2 ± 0.04 | 1.99 ± 0.04 | 752.44 ± 0.64 | 748.8 ± 0.65 | 745.19 ± 0.65 | 741.57 ± 0.66 | 737.93 ± 0.66 | 730.7 ± 0.67 | 723.32 ± 0.68
CCCCCCCCC [nonane] | 1.99 ± 0.04 | 1.99 ± 0.04 | 1.98 ± 0.04 | 1.97 ± 0.04 | 1.96 ± 0.04 | 1.95 ± 0.04 | 1.94 ± 0.04 | 721.77 ± 0.6 | 717.76 ± 0.6 | 713.77 ± 0.61 | 709.89 ± 0.61 | 706.2 ± 0.62 | 698.14 ± 0.63 | 690.14 ± 0.64
